Experimental data published in patent US11746103B2, “ALK-5 inhibitors and uses thereof” (Sumitomo Pharma Oncology, Inc., priority 2020, dated 2023).
pIC50: −log10 of the molar value. Like-named read-outs stand apart in the source and are kept apart here.

Legend:
[1] = molecular target: ALK-5 (Homo sapiens (Human), UniProt P36897); assay: LanthaScreen Eu Kinase Binding Assay, ALK-5; conditions: for pIC50: read-out: Kinase Inhibition: ALK5 IC50
Procedure: Activity determinations and selectivity were conducted by Thermo Fisher Scientific “SelectScreen™ Biochemical Kinase Profiling Service” using their “LanthaScreen™ Eu Kinase Binding Assay Screening” (www.thermofisher.com/selectscreen). Binding of an Alexa Fluor™ conjugate or “tracer” to a kinase is detected by addition of a Eu-labeled anti-tag antibody. Binding of the tracer and antibody to a kinase results in a high degree of FRET, whereas displacement of the tracer with a kinase inhibitor results in a loss of FRET. This assay is carried out by mixing the compound tested with the reagents and reading, no development step is required. Life Technologies' Kinase Tracers are based on ATP-competitive kinase inhibitors, making them suitable for detection of any compounds that bind to the ATP site. Inhibitors that bind the ATP site include both Type I kinase inhibitors, which bind solely to the ATP site, and Type II inhibitors (e.g., Gleevec®/Imatinib, Sorafenib, BIRB-796), which bind to both the ATP site and a second site often referred to as the allosteric site. […] For 10 point titrations, 3-fold serial dilutions are conducted from the starting concentration (see Table 2 below). [table] All Kinase/Antibody Mixtures are diluted to a 2× working concentration in the specified kinase buffer. The 4× AlexaFluor labeled Tracer is prepared in Kinase Buffer. Bar-coded, low volume, white 384-well plate (Greiner Cat. #784207) […] 2. 3.84 μL—Kinase Buffer […] 4. 4.0 μL—4× Tracer 5. 30-second plate shake 6. 60-minute incubation at room temperature 7. […] The LanthaScreen Eu Kinase Binding Assay data is analyzed using the equations in Table 3 for each set of data points. [table] Data generated were plotted using the graphing software XLfit from IDBS. The dose response curve is curve fit to model number 205.

[2] = system: TGF-beta induced SMAD signaling; assay: RDSR (RD SMAD reporter) Cellular Reporter Assay; type: cell-based; conditions: Homo sapiens; for pIC50: 200 pg/ml rhTGF-beta1, 24 h, read-out: RD-SMAD reporter activity
From the text: TGF-β signaling is triggered when the activated TGF-β homodimer binds to the TGF-β receptor 2, which in turn leads to the recruitment and phosphorylation of TGF-β receptor 1 (ALK5). Activated TGF-β receptor 1 phosphorylates the signal transduction molecules SMAD2 and SMAD3. These bind to common mediator SMAD4 and translocate to the nucleus where they bind to short conserved DNA sequences called the SMAD binding element and induce the transcription of various target genes. […] Certain example compounds were also or alternatively assayed using the RDSR Cellular Reporter Assay. Overview and Design: The RD SMAD reporter (RDSR) cell line was generated by stabily integrating the SMAD cellular reporter plasmid (Promega, pGL4.48[luc2P/SBE/Hygro]) into the human rhabdomyosarcoma cell line RD (ATCC, CCL-136). Once SMAD signaling is triggered, with, for example, the addition of TGF-β 1, receptor activated SMADs bind the SMAD binding elements (SBEs) leading to the expression of intracellular luciferase. To determine the potency of compounds at inhibiting TGF-beta induced SMAD signaling, the RDSR reporter system was utilized. The rhabdomyosarcoma line RD (ATCC, CCL-136) was transfected with a SMAD reporter vector (Promega, E3671) and a polyclonal stable cell line was selected using hygromycin B. The transfected vector contains three copies of a SMAD-binding element (SBE) that drive transcription of the luciferase reporter gene luc2P (Photinus pyralis). luc2P is a synthetically-derived luciferase sequence with humanized codon optimization that is designed for high expression and reduced anomalous transcription. The luc2P gene contains hPEST, a protein destabilization sequence, which allows luc2P protein levels to respond more quickly than those of luc2 to induction of transcription. The intracellular luciferase is quantified by the addition of equal volume (100 μl) of ONE-GLO substrate (Promega, E6120) and read within ten minutes on the Envision plate reader. The stable RDSR cell line was tested by evaluating the response to human TGF-β1 (R&D Systems, 7754-BH-005) as well as human myostatin (R&D Systems, 788-G8-010/CF) in a concentration dependent manner after twenty-four hours of stimulation. […] For compound evaluation, the tool drugs Galunisertib and Vactosertib were included as positive controls. The tool drugs and the compounds of the invention being tested were all incubated with cells for one hour at 37° C. before stimulation with 200 pg/ml rhTGF-beta1 for twenty-four hours. The activity of the reporter was determined with the addition of ONE-GLO (Promega) substrate and luminescence counts collected on the Envision plate reader (Perkin Elmer). […] The activity of compounds of the invention as determined using this method are reported in the third column of Table 1, below.

ALK-5, sequence (P36897 34-503): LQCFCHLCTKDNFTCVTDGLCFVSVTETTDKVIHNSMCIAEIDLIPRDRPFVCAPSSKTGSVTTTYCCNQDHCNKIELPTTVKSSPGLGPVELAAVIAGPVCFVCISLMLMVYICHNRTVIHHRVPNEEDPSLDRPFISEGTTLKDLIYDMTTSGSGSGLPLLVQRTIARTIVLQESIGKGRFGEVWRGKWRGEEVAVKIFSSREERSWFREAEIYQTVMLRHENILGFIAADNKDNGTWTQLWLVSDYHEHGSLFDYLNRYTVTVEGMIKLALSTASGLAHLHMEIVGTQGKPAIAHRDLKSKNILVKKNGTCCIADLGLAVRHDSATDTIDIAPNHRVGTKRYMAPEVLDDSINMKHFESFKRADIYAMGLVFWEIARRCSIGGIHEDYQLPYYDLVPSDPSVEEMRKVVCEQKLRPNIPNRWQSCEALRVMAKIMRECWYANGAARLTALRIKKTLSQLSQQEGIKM

Row | Kinase Selectivity: ALK2 IC50/ ALK5 IC50 [1] | pIC50 [1] | pIC50 [2] | Compound | IC50 ([2]; 24 h, read-out: RD-SMAD reporter activity (nM))
1 | (++) (10<ALK2/ALK5<100=[++]) | > 8.00 | > 7.00 | Cc1cccc2c(Nc3ccnc(Nc4ccc(CN5CCN(C)CC5)c(C(F)(F)F)c4)n3)cnnc12 [EX-28, N4-(8-methylcinnolin-4-yl)-N2-(4-((4-methylpiperazin-1-yl)methyl)-3-(trifluoromethyl)phenyl)pyrimidine-2,4-diamine] | 
2 | (++) (10<ALK2/ALK5<100=[++]) | > 8.00 | > 7.00 | Cc1cccc2c(Nc3ccnc(Nc4cccc(CN5CCOCC5)c4)n3)cnnc12 [EX-47, N4-(8-methylcinnolin-4-yl)-N2-(3-(morpholinomethyl)phenyl)pyrimidine-2,4-diamine] | 
3 | (++) (10<ALK2/ALK5<100=[++]) | 7.00 to 8.00 | 6.00 to 7.00 | Cc1cccc2c(Nc3ccnc(Nc4cc(CC5CCNCC5)ccc4F)n3)cnnc12 [EX-16, N2-(2-fluoro-5-(piperidin-4-ylmethyl)-phenyl)-N4-(8-methyl-cinnolin-4-yl)-pyrimidine-2,4-diamine] | 
4 | (++) (10<ALK2/ALK5<100=[++]) | > 8.00 | > 7.00 | Cc1c(F)ccc2c(Nc3ccnc(Nc4ccc(N5CCNCC5)cc4)n3)cnnc12 [EX-02, N4-(7-fluoro-8-methylcinnolin-4-yl)-N2-(4-(piperazin-1-yl)phenyl)-pyrimidine-2,4-diamine] | 
5 | (++) (10<ALK2/ALK5<100=[++]) | > 8.00 | > 7.00 | Cc1cccc2c(Nc3ccnc(Nc4cc(F)cc(N5CCOCC5)c4)n3)cnnc12 [EX-44, N2-(3-fluoro-5-morpholinophenyl)-N4-(8-methylcinnolin-4-yl)pyrimidine-2,4-diamine] | 
6 | (++) (10<ALK2/ALK5<100=[++]) | > 8.00 | > 7.00 | Cc1ccc(F)c2c(Nc3ccnc(Nc4ccc(N5CCN(C)CC5)cc4)n3)cnnc12 [EX-24, N4-(5-fluoro-8-methylcinnolin-4-yl)-N2-(4-(4-methylpiperazin-1-yl)phenyl)pyrimidine-2,4-diamine] | 
7 | (++) (10<ALK2/ALK5<100=[++]) | > 8.00 | > 7.00 | Cc1cccc2c(Nc3ccnc(Nc4ccc(N5CCN(CCO)CC5)cc4)n3)cnnc12 [EX-37, 2-(4-(4-((4-((8-methylcinnolin-4-yl)amino)pyrimidin-2-yl)amino)phenyl)piperazin-1-yl)ethan-1-ol] | 
8 | (++) (10<ALK2/ALK5<100=[++]) | > 8.00 | > 7.00 | Cc1c(F)ccc2c(Nc3ccnc(Nc4cccc(N5CCOCC5)c4)n3)cnnc12 [EX-40, N4-(7-fluoro-8-methylcinnolin-4-yl)-N2-(3-morpholinophenyl)pyrimidine-2,4-diamine] | 
9 | (+) (≤10=[+]) | > 8.00 | > 7.00 | Cc1cccc2c(Nc3ccnc(Nc4cc(F)cc(CN5CCNCC5)c4)n3)cnnc12 [EX-06, N2-(3-fluoro-5-(piperazin-1-ylmethyl)phenyl)-N4-(8-methyl-cinnolin-4-yl)pyrimidine-2,4-diamine] | 
10 | (++) (10<ALK2/ALK5<100=[++]) | > 8.00 | > 7.00 | Cc1cccc2c(Nc3ccnc(Nc4ccc(N5CCN(CC(F)(F)F)CC5)cc4)n3)cnnc12 [EX-17, N4-(8-methyl-cinnolin-4-yl)-N2-(4-(4-(2,2,2-trifluoroethyl)-piperazin-1-yl)phenyl)-pyrimidine-2,4-diamine] | 
11 | (++) (10<ALK2/ALK5<100=[++]) | > 8.00 | > 7.00 | Cc1cc(F)cc2c(Nc3ccnc(Nc4ccc(N5CCNCC5)cc4)n3)cnnc12 [EX-15, N4-(6-fluoro-8-methyl-cinnolin-4-yl)-N2-(4-(piperazin-1-yl)phenyl)-pyrimidine-2,4-diamine] | 
12 | (++) (10<ALK2/ALK5<100=[++]) | > 8.00 | > 7.00 | Cc1cccc2c(Nc3ccnc(Nc4ccc(N5CCN(C)CC5)c(Cl)c4)n3)cnnc12 [EX-34, N2-(3-chloro-4-(4-methyl-piperazin-1-yl)-phenyl)-N4-(8-methylcinnolin-4-yl)pyrimidine-2,4-diamine] | 
13 | (+) (≤10=[+]) | 7.00 to 8.00 | 6.00 to 7.00 | Cc1cccc2c(Nc3nc(Nc4ccc(N5CCNCC5)cc4)ncc3F)cnnc12 [EX-09, 5-fluoro-N4-(8-methyl-cinnolin-4-yl)-N2-(4-(piperazin-1-yl)phenyl)pyrimidine-2,4-diamine] | 
14 | (++) (10<ALK2/ALK5<100=[++]) | > 8.00 | 6.00 to 7.00 | Clc1cccc2c(Nc3ccnc(Nc4ccc(N5CCNCC5)cc4)n3)cnnc12 [EX-50, N4-(8-chlorocinnolin-4-yl)-N2-(4-(piperazin-1-yl)phenyl)pyrimidine-2,4-diamine] | 
15 | (++) (10<ALK2/ALK5<100=[++]) | > 8.00 | > 7.00 | Cc1cccc2c(Nc3ccnc(Nc4ccc(N5CCN(C)CC5)cc4)n3)cnnc12 [EX-33, N4-(8-methylcinnolin-4-yl)-N2-(4-(4-methylpiperazin-1-yl)phenyl)pyrimidine-2,4-diamine] | 
16 | (++) (10<ALK2/ALK5<100=[++]) | 7.00 to 8.00 | 6.00 to 7.00 | Cc1cccc2c(Nc3ccnc(Nc4ccc(C(C)(C)C)cc4)n3)cnnc12 [EX-54, N2-(4-(tert-butyl)phenyl)-N4-(8-methylcinnolin-4-yl)pyrimidine-2,4-diamine] | 
17 | (++) (10<ALK2/ALK5<100=[++]) | > 8.00 | > 7.00 | Cc1cccc2c(Nc3ccnc(Nc4ccc(Cl)cc4)n3)cnnc12 [EX-29, N2-(4-chlorophenyl)-N4-(8-methylcinnolin-4-yl)pyrimidine-2,4-diamine] | 
18 | (++) (10<ALK2/ALK5<100=[++]) | 7.00 to 8.00 | > 7.00 | Cc1cccc2c(Nc3ccnc(Nc4ccc(F)c(N5CCOCC5)c4)n3)cnnc12 [EX-38, N2-(4-fluoro-3-morpholinophenyl)-N4-(8-methylcinnolin-4-yl)pyrimidine-2,4-diamine] | 
19 | (++) (10<ALK2/ALK5<100=[++]) | > 8.00 | > 7.00 | Cc1c(F)ccc2c(Nc3ccnc(Nc4ccc(N5CCOCC5)cc4)n3)cnnc12 [EX-41, N4-(7-fluoro-8-methylcinnolin-4-yl)-N2-(4-morpholinophenyl)pyrimidine-2,4-diamine] | 
20 | (++) (10<ALK2/ALK5<100=[++]) | > 8.00 | > 7.00 | Cc1cccc2c(Nc3ccnc(Nc4ccc(C5CCOCC5)cc4)n3)cnnc12 [EX-46, N4-(8-methylcinnolin-4-yl)-N2-(4-(tetrahydro-2H-pyran-4-yl)phenyl)pyrimidine-2,4-diamine] | 

Row | Compound | Kinase Selectivity: ALK2 IC50/ ALK5 IC50 [1] | pIC50 [1] | pIC50 [2] | IC50 ([2]; 24 h, read-out: RD-SMAD reporter activity (nM))
21 | Cc1cccc2c(Nc3ccnc(Nc4ccc(N5CCNCC5)c(F)c4)n3)cnnc12 [EX-08, N2-(3-fluoro-4-(piperazin-1-yl)phenyl)-N4-(8-methylcinnolin-4-yl)pyrimidine-2,4-diamine] | (++) (10<ALK2/ALK5<100=[++]) | > 8.00 |  | < 100 nM
